Test [1] deals with THP-1 dual cells. The test is described as follows: Type 1 IFN activation assay (THP-1 dual cells, QUANTI-Luc). Format: cell-based. To be noted: PMA-treated THP-1 dual cells, compound in digitonin PB buffer 30 min, then 24 h, expression level of IFN. How it is done: Plated THP-1 dual cells (Invivogen) as 100000 cells/well in a 96 well-plate, and then phorbol 12-myristate 13-acetate (PMA) was added and the final concentration of PMA was 30 ng/mL. After 24 h incubation, cells were washed with fresh medium for twice, and 3-folds dilution compounds were added to appropriate wells. The compounds were diluted by PB buffer (50 mM HEPES, 100 mM KCl, 3 mM MgCl2, 0.1 mM DTT, 85 mM sucrose, 1 mM ATP, 0.1 mM GTP, 0.2% o bovine serum albumin and 5 μg/ml digitonin) and the top dose was 10 μM, minimum dose was 0.0015 μM. The cells were incubated for 30 min, and then washed with fresh medium for twice again. Add fresh medium, and the cells were incubated for additional 24 h. After incubation, 10 ul supermant and 50 μL QUANTI-Luc (Invivogen) was add to a 96 well-plate, fluorescence was read with TECAN. The express level of IFN was proportional to the fluorescence intensity. Drew the curve with Graphpad Prism and analyse EC50 of the compounds.

Test [2] addresses STING (Homo sapiens, UniProt Q86WV6). The test is described as follows: STING IFNβ secretion assay (THP-1 cells, AlphaLISA IFN-β kit). Format: cell-based. The conditions noted are these: 5 h incubation, secretion of IFN-β. How it is done: Plated 40 uL THP-1 cells (ATCC) as 16000 cells/well in a 96 well-plate (Corning, 3596). 3-folds dilution compounds were added to appropriate wells. The compounds were diluted with buffer (RPMI1640+2 mM L-glutamine+1× non-essential amino acids+1 mM sodium pyruvate+0.5% Fetal bovine serum), and the top dose of the compound was 100 μM, minimum dose was 1.23 μM. After 5 h incubation, […] supernant was added to 384-well plate (Greiner, Cat: 784075) and the secretion of IFN-β was detected with AllphaLISA IFN-β kit(PerkinElmer, Cat:AL577C). 1× buffer was prepared to dilute the receptor and donor, and then 4 μL 20 μg/mL Anti-pIFNβ AlphaLISA receptor was added to every well. After 30 mins incubation at room temperature, 4 μL 2 nM biotinylated Anti-pIFNβ antibody was added to a 384 well-plate, incubated overnight at 4° C. 10 μL 40 µg/mL Streptavidin (SA) donor which was diluted with 1×buffer was added, and then incubated at room temperature for 30 min. Fluorescence was read with TECAN. The expressed level of IFN-β was proportional to the fluorescence intensity. Drew the curve with Graphpad Prism and analysed EC50 of the compounds.

Results on 9 molecules are retold here after patent US12152051B2, “Cyclic dinucleotide analogue, pharmaceutical composition thereof, and application” (SHANGHAI DE NOVO PHARMATECH CO., LTD., priority 2018, dated 2024).

By pEC50 is commonly meant the EC50 on a negative log10 scale, so that one unit is a factor of ten. A higher pEC50 goes with a small EC50.

pEC50: −log10 of the molar value.

Sequence of STING (Q86WV6 whole entry): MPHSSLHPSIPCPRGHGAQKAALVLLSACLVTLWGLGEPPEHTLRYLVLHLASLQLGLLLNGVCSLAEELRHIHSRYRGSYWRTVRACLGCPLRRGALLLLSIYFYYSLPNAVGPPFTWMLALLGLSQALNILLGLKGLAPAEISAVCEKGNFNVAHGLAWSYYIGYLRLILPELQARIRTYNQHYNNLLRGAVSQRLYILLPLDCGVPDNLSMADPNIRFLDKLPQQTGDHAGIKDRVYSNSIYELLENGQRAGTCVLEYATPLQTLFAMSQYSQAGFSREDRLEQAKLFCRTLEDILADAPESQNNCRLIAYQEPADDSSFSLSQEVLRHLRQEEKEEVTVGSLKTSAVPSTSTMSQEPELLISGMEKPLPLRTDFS

`Nc1ncnc2c1ncn2[C@@H]1O[C@@H]2COP(=O)(S)O[C@@H]3[C@H](O)[C@@H](COP(=O)(S)O[C@H]2[C@H]1O)O[C@H]3n1c(=O)[nH]c2c(N)ncnc21` (some centres unmarked) [Compound 1-p1] had a pEC50 in test [1] below 5.00. As for `Nc1ncnc2c1ncn2[C@@H]1O[C@@H]2COP(=O)(S)O[C@@H]3[C@H](O)[C@@H](COP(=O)(S)O[C@H]2[C@H]1O)O[C@H]3n1c(=O)sc2c(N)ncnc21` (some centres unmarked) [Compound 2-p1], in test [1], the pEC50 is 4.34.

For the molecule `Nc1ncnc2c1ncn2C1OC2COP(=O)(S)OC3C(O)C(COP(=O)(S)OC2C1F)OC3n1c(=O)sc2c(N)ncnc21` (centres unmarked) [Compound 4-p2], the pEC50 in test [2] was 4.44; in test [1] (Homo sapiens, THP1-Dual), 6.20. Turning to `Nc1ncnc2c1ncn2C1OC2COP(=O)(S)OC3C(O)C(COP(=O)(S)OC2C1F)OC3n1c(=O)sc2c(N)ncnc21` (centres unmarked) [Compound 4-p3], the pEC50 in test [2] was 4.03; in test [1] it was 6.38. Regarding `CO[C@H]1[C@H]2OP(=O)(S)OC[C@H]3O[C@@H](n4cnc5c(N)ncnc54)[C@H](F)[C@@H]3OP(=O)(S)OC[C@H]1O[C@H]2n1c(=O)sc2c(N)ncnc21` (some centres unmarked) [Compound 6-p1], in test [1], the pEC50 was 5.64.

In test [1], `Nc1nc2c(ncn2[C@@H]2O[C@@H]3COP(=O)(S)O[C@H]4[C@@H](O)[C@H](n5cnc6ccccc6c5=O)O[C@@H]4COP(=O)(S)O[C@@H]2[C@@H]3O)c(=O)[nH]1` (some centres unmarked) [Compound 10-p1] gave a pEC50 of 4.15.

For `Nc1nc2c(ncn2[C@@H]2O[C@@H]3COP(=O)(S)O[C@H]4[C@@H](O)[C@H](n5cnc6ncccc6c5=O)O[C@@H]4COP(=O)(S)O[C@@H]2[C@@H]3O)c(=O)[nH]1` (some centres unmarked) [Compound 11-p1], the pEC50 in test [1] was 4.22. In turn, `Nc1nc2c(ncn2[C@@H]2O[C@@H]3COP(=O)(S)O[C@H]4[C@@H](O)[C@H](n5ccc6nccn6c5=O)O[C@@H]4COP(=O)(S)O[C@@H]2[C@@H]3O)c(=O)[nH]1` (some centres unmarked) [Compound 13-p1] gave a negative logarithm of the EC50 (pEC50) in test [1] of 3.73. `Nc1ncnc2c1ncn2[C@@H]1O[C@@H]2COP(=O)(S)O[C@@H]3C(O)[C@@H](COP(O)(=S)O[C@H]2[C@H]1O)O[C@H]3n1cnc2c(N)ncnc21` (some centres unmarked) [Ref. 1, MLRR-CDA, reference compound] gave a pEC50 in test [1] of 5.53.
